In this experiment the test system is BDF1 mice, P388 leukemia ip, median survival T/C. In words: NCI In Vivo Anticancer Drug Screen. Data for tumor model P388 Leukemia (intraperitoneal) in B6D2F1 (BDF1) mice. To be noted: endpoint: median survival time, higher = longer survival. An outline of the steps:
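Each value expresses how treatment altered survival: treated-mouse outcome over vehicle-mouse outcome, both groups bearing the transplanted tumour.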

The mark [1] stands for this setting: dose: 100.0 mg/kg/injection, schedule: Q01DX009 (ip), vehicle: saline with Tween-80.
[2] abbreviates: dose: 400.0 mg/kg/injection, schedule: Q01DX009 (ip), vehicle: saline with Tween-80.
Where [3] appears, read: dose: 100.0 mg/kg/injection, schedule: Q01DX009 (ip), vehicle: Klucel (hydroxypropylcellulose) (HPC).
The mark [4] stands for this setting: dose: 100.0 mg/kg/injection, schedule: Q04DX003 (ip), vehicle: Klucel (hydroxypropylcellulose) (HPC).
[5] abbreviates: dose: 200.0 mg/kg/injection, schedule: Q01DX009 (ip), vehicle: Klucel (hydroxypropylcellulose) (HPC).
The mark [6] stands for this setting: dose: 200.0 mg/kg/injection, schedule: Q04DX003 (ip), vehicle: Klucel (hydroxypropylcellulose) (HPC).
Setting [7] is: dose: 50.0 mg/kg/injection, schedule: Q01DX009 (ip), vehicle: saline with Tween-80.
Setting [8] is: dose: 200.0 mg/kg/injection, schedule: Q01DX009 (ip), vehicle: saline with Tween-80.
Where [9] appears, read: dose: 50.0 mg/kg/injection, schedule: Q01DX009 (ip), vehicle: Klucel (hydroxypropylcellulose) (HPC).
Setting [10] is: dose: 25.0 mg/kg/injection, schedule: Q01DX009 (ip), vehicle: Klucel (hydroxypropylcellulose) (HPC).
Where [11] appears, read: dose: 100.0 mg/kg/injection, schedule: Q04DX003 (ip), vehicle: saline with Tween-80.

Toxic doses and inconclusive results are not listed.

Turning to `CC(=O)OC(C(=O)N(c1ccccc1)c1ccccc1)c1ccccc1` (stereo not given), the T/C reads like this: under setting [1], 92 % of control; under setting [2], 96 % of control.

Take `NC(N)=Nc1ccc(OC(=O)c2ccc(N=C(N)N)cc2)cc1`: the T/C is, setting by setting: (dose: 1.56 mg/kg/injection, schedule: Q01DX009 (ip), vehicle: water) 106 % of control; (dose: 3.12 mg/kg/injection, schedule: Q01DX009 (ip), vehicle: water) 94 % of control; (dose: 6.25 mg/kg/injection, schedule: Q01DX009 (ip), vehicle: water) 103 % of control; (dose: 12.5 mg/kg/injection, schedule: Q01DX009 (ip), vehicle: water) 110 % of control; (dose: 25.0 mg/kg/injection, schedule: Q01DX009 (ip), vehicle: water) 103 % of control.

For `NC(=O)C1(C(N)=O)CCC1`, the T/C reads like this: under setting [3], 100 % of control; under setting [4], 100 % of control; under setting [5], 110 % of control; under setting [6], 100 % of control; (dose: 400.0 mg/kg/injection, schedule: Q01DX009 (ip), vehicle: Klucel (hydroxypropylcellulose) (HPC)) 100 % of control; (dose: 400.0 mg/kg/injection, schedule: Q04DX003 (ip), vehicle: Klucel (hydroxypropylcellulose) (HPC)) 100 % of control.

Consider `C[C@]12CC[C@H]3[C@@H](CC[C@H]4N(CCCl)CCC[C@]34C)[C@@H]1CC[C@@H]2O`, for which the T/C is, setting by setting: (dose: 12.5 mg/kg/injection, schedule: Q01DX001 (ip), vehicle: saline) 105 % of control; (dose: 25.0 mg/kg/injection, schedule: Q01DX001 (ip), vehicle: saline) 109 % of control.

Turning to `CS(=O)(=O)CC(O)(c1ccccc1)c1cccs1` (stereo not given), the T/C is 99 % of control under setting [7], 100 % of control under setting [1] and 100 % of control under setting [8].

For the compound `Cc1cc(O)c2c(c1)C(=O)C=CC2=O`, the T/C is, setting by setting: (dose: 0.12 mg/kg/injection, schedule: Q01DX009 (ip), vehicle: other) 107 % of control; (dose: 0.25 mg/kg/injection, schedule: Q01DX009 (ip), vehicle: other) 101 % of control; (dose: 0.5 mg/kg/injection, schedule: Q01DX009 (ip), vehicle: other) 117 % of control; (dose: 0.54 mg/kg/injection, schedule: Q01DX009 (ip), vehicle: alcohol) 120 % of control; (dose: 0.82 mg/kg/injection, schedule: Q01DX009 (ip), vehicle: alcohol) 110 % of control; (dose: 1.0 mg/kg/injection, schedule: Q01DX009 (ip), vehicle: other) 103 % of control. Further, the T/C (dose: 1.25 mg/kg/injection, schedule: Q01DX009 (ip), vehicle: alcohol) is 106 % of control; the T/C (dose: 1.8 mg/kg/injection, schedule: Q01DX009 (ip), vehicle: alcohol) is 102 % of control; the T/C (dose: 2.0 mg/kg/injection, schedule: Q01DX009 (ip), vehicle: other) is 101 % of control; the T/C (dose: 2.5 mg/kg/injection, schedule: Q01DX009 (ip), vehicle: alcohol) is 121 % of control.

With `O=C1c2ccccc2-c2cc3ccccc3cc21`, the T/C (dose: 75.0 mg/kg/injection, schedule: Q04DX003 (ip), vehicle: saline sonified) is 100 % of control; the T/C (dose: 150.0 mg/kg/injection, schedule: Q04DX003 (ip), vehicle: saline sonified) was 110 % of control; the T/C (dose: 300.0 mg/kg/injection, schedule: Q04DX003 (ip), vehicle: saline sonified) was 110 % of control.

With `Clc1ccc(NC2=NCCN=C(Nc3ccc(Cl)cc3)SS2)cc1`, the T/C by setting is: under setting [9], 91 % of control; under setting [3], 91 % of control.

As to `O=C(O)C1C2CC1C(Cl)C2Cl` (stereo not given), the T/C is, setting by setting: under setting [7], 106 % of control; under setting [1], 106 % of control; under setting [8], 106 % of control.

With `COc1ccc2ccccc2c1C1NC(=O)c2ccccc2N1` (stereo not given), the T/C runs as follows: under setting [10], 115 % of control; under setting [9], 100 % of control; under setting [5], 166 % of control.

`NC(C(=O)O)C(=O)c1ccccc1` (stereo not given): the T/C is 100 % of control (dose: 100.0 mg/kg/injection, schedule: Q04DX003 (ip), vehicle: saline sonified); 100 % of control (dose: 200.0 mg/kg/injection, schedule: Q04DX003 (ip), vehicle: saline sonified); 100 % of control (dose: 400.0 mg/kg/injection, schedule: Q04DX003 (ip), vehicle: saline sonified).

Turning to `Nc1nc(N)c(Nc2ccc(Cl)cc2)c(Cl)n1`, the T/C runs as follows: (dose: 100.0 mg/kg/injection, schedule: Q01DX001 (ip), vehicle: saline with Tween-80) 88 % of control; (dose: 200.0 mg/kg/injection, schedule: Q01DX001 (ip), vehicle: saline with Tween-80) 89 % of control.

Consider `COc1ccc(Cc2c3cc(OC)c(OC)cc3cc[n+]2C)cc1OC`, for which the T/C runs as follows: (dose: 25.0 mg/kg/injection, schedule: Q01DX009 (ip), vehicle: saline with Tween-80) 90 % of control; under setting [7], 100 % of control; under setting [11], 108 % of control.

Regarding `O=C(O)C1C(C(=O)O)N2C(c3ccccc3)C(C(=O)O)C(C(=O)O)N2C1c1ccccc1` (stereo not given), the T/C reads like this: under setting [7], 90 % of control; under setting [1], 90 % of control; under setting [8], 90 % of control.

As for `COC(=O)C12OCC34C(CC5C(C)=C(O)C(=O)CC5(C)C3C(O)C1O)OC(=O)C(OC(=O)/C=C(\C)C(C)(C)O)C24` (stereo not given), the T/C was 165 % of control (dose: 0.2 mg/kg/injection, schedule: Q01DX009 (ip), vehicle: saline); 165 % of control (dose: 0.4 mg/kg/injection, schedule: Q01DX009 (ip), vehicle: saline); 163 % of control (dose: 0.8 mg/kg/injection, schedule: Q01DX009 (ip), vehicle: saline); 183 % of control (dose: 60.0 micrograms/kg/injection, schedule: Q01DX009 (ip), vehicle: saline + alcohol); 183 % of control (dose: 120.0 micrograms/kg/injection, schedule: Q01DX009 (ip), vehicle: saline + alcohol); 200 % of control (dose: 250.0 micrograms/kg/injection, schedule: Q01DX009 (ip), vehicle: saline + alcohol). In addition, the T/C (dose: 500.0 micrograms/kg/injection, schedule: Q01DX009 (ip), vehicle: saline + alcohol) was 211 % of control; the T/C (dose: 1000.0 micrograms/kg/injection, schedule: Q01DX009 (ip), vehicle: saline + alcohol) is 238 % of control; the T/C (dose: 2000.0 micrograms/kg/injection, schedule: Q01DX009 (ip), vehicle: saline + alcohol) is 194 % of control.

Turning to `O=C(O)CC(SC(c1ccccc1)(c1ccccc1)c1ccccc1)C(=O)O` (stereo not given), the T/C is, setting by setting: (dose: 50.0 mg/kg/injection, schedule: Q04DX003 (ip), vehicle: Klucel (hydroxypropylcellulose) (HPC)) 86 % of control; under setting [4], 86 % of control; under setting [6], 95 % of control.

Take `C#CC1(OCC2CN(c3ccccc3)C(=O)O2)CCCCC1` (stereo not given): the T/C was 90 % of control under setting [1]; 100 % of control (dose: 100.0 mg/kg/injection, schedule: Q04DX003 (ip), vehicle: saline); 100 % of control under setting [8]; 100 % of control (dose: 200.0 mg/kg/injection, schedule: Q04DX003 (ip), vehicle: saline); 109 % of control under setting [2]; 100 % of control (dose: 400.0 mg/kg/injection, schedule: Q04DX003 (ip), vehicle: saline).

As to `O=C(O)C1CC/C=C\CCC1` (stereo not given), the T/C is 100 % of control (dose: 100.0 mg/kg/injection, schedule: Q04DX003 (sc), vehicle: olive oil, sesame oil, peanut oil); 100 % of control (dose: 200.0 mg/kg/injection, schedule: Q04DX003 (sc), vehicle: olive oil, sesame oil, peanut oil); 91 % of control (dose: 400.0 mg/kg/injection, schedule: Q04DX003 (sc), vehicle: olive oil, sesame oil, peanut oil).

Take `COC(=O)C1=COC2OC3CC1C2C(C)O3` (stereo not given): the T/C was 99 % of control (dose: 12.5 mg/kg/injection, schedule: Q01DX009 (ip), vehicle: Klucel (hydroxypropylcellulose) (HPC)); 98 % of control under setting [10]; 115 % of control under setting [9].

For `O=C(c1ccco1)C1Cc2ccccc2C1=O` (stereo not given), the T/C is 116 % of control under setting [1]; 91 % of control under setting [11]; 104 % of control under setting [8]; 104 % of control (dose: 200.0 mg/kg/injection, schedule: Q04DX003 (ip), vehicle: saline with Tween-80); 100 % of control under setting [2]; 108 % of control (dose: 400.0 mg/kg/injection, schedule: Q04DX003 (ip), vehicle: saline with Tween-80).

For the origin of these results see PubChem BioAssay AID328 (DTP/NCI, 2004).
